Assay: Solubility in TFP (2,2,3,3-tetrafluoropropanol)
Format: physicochemical

| SMILES | Solubility |
| --- | --- |
| CCN1CCS/C1=C/c1sc2ccccc2[n+]1C | 5% |
| CC(C)N(c1nn(C)/c(=N/C=C/C2=[N+](C)c3ccccc3C2(C)C)s1)C(C)C [Example 1] | > 2% |
| CCN1CCS/C1=C/c1sc2ccccc2[n+]1C.[I-] [Example 2] | 5% |

From patent publication US20030008234A1, “Optical data carrier comprising a cyanine dye as light-absorbent compound in the information layer” (priority 2001, published 2003)
